Experimental data: patent US20090270371A1, “QUINOLINE DERIVATIVES USEFUL IN THE TREATMENT OF MGLUR5 RECEPTOR-MEDIATED DISORDERS” (priority 2005, published 2009)

Target: T1, rat mGluR5 receptors (Rattus norvegicus, UniProt P31424)
T1 construct: rat cerebro-cortical membrane preparation was used; from tissue; host or cells: rat cerebral cortex membranes
Assay: mGluR5 receptor binding test, rat cerebro-cortical membrane preparation, [3H]-M-MPEP
Conditions: affinity for rat mGluR5 receptors; [3H]-M-MPEP (2 nM) radioligand
Procedure: The mGluR5 receptor binding was determined according to the modified method of Gasparini et. al. (Bioorg. Med. Chem. Lett., 2000, 12, 407). Based on the high homology between the human and rat mGluR5 receptors, rat cerebro-cortical membrane preparation was used to determine the binding characteristics of the reference compounds and novel compounds to the rat mGluR5. The A18 cell line expressing hmGluR5a (purchased from Euroscreen) was used to determine binding characteristics of the chemical compounds to the human mGluR5a receptor. [^3H]-M-MPEP (2 nM) was used as radioligand. The nonspecific binding was determined in the presence of 10 μM M-MPEP.

T1 sequence (P31424 21-1203): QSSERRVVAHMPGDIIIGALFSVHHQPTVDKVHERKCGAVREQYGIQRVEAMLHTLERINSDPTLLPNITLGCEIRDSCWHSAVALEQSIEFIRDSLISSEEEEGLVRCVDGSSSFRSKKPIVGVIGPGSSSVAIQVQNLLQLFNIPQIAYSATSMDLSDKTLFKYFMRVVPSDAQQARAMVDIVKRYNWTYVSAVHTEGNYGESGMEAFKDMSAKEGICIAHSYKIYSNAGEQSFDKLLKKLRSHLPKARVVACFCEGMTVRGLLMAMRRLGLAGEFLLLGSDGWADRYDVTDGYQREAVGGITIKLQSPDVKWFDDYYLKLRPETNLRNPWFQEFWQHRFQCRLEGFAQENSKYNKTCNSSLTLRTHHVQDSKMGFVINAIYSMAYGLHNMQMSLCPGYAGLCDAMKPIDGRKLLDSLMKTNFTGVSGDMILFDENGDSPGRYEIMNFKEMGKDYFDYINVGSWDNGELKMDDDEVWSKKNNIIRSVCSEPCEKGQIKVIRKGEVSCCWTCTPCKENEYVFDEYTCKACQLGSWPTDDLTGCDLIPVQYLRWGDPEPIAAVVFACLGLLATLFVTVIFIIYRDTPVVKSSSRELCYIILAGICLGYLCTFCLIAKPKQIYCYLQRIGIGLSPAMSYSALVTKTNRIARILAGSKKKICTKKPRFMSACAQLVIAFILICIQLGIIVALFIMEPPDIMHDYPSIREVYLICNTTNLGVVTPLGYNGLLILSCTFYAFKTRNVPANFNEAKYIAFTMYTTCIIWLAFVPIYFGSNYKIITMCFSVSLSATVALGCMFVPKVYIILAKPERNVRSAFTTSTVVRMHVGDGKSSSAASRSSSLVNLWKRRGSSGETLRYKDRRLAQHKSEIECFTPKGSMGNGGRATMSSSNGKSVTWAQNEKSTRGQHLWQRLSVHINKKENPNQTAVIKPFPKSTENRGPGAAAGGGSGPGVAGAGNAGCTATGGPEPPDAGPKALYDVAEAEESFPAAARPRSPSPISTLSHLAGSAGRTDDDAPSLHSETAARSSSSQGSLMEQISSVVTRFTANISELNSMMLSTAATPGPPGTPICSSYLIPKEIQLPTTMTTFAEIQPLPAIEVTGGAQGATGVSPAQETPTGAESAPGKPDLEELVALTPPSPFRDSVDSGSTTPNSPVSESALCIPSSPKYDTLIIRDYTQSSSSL

Row | SMILES | Ki [nM]
1 | Cc1ccc2ncc(S(=O)(=O)c3ccc(C#N)cc3)c(N3CCC(C)CC3)c2c1 [Compound 166] | 200 to 500
2 | Cc1cc(C)cc(S(=O)(=O)c2cnc3ccc(C)cc3c2N2CCC(C)CC2)c1 [Compound 168] | 200 to 500
3 | CC1CCN(c2c(S(=O)(=O)c3cc(F)cc(F)c3)cnc3cc(F)ccc23)CC1 [Compound 170] | 200 to 500
4 | CC1CCN(c2c(S(=O)(=O)c3ccc(F)cc3)cnc3cc(F)ccc23)CC1 [Compound 172] | 200 to 500
5 | Cc1cc(C)cc(S(=O)(=O)c2cnc3cc(F)ccc3c2N2CCC(C)CC2)c1 [Compound 184] | 200 to 500
6 | COc1ccc(S(=O)(=O)c2cnc3cc(Cl)ccc3c2N2CCC(C)CC2)cc1 [Compound 193] | 200 to 500
7 | CC1CCN(c2c(S(=O)(=O)c3ccc(C#N)cc3)cnc3cc(Cl)ccc23)CC1 [Compound 204] | 200 to 500
8 | CC1CCN(c2c(S(=O)(=O)c3cccc(F)c3)cnc3ccc(Cl)cc23)CC1 [Compound 214] | 200 to 500
9 | COc1cccc(S(=O)(=O)c2cnc3ccc(Cl)cc3c2N2CCC(C)CC2)c1 [Compound 215] | < 200
10 | CC1CCN(c2c(S(=O)(=O)c3cccc(Cl)c3)cnc3ccc(Cl)cc23)CC1 [Compound 216] | > 500
11 | Cc1ccc(S(=O)(=O)c2cnc3ccc(Cl)cc3c2N2CCC(C)CC2)cc1F [Compound 217] | 200 to 500
12 | CC1CCN(c2c(S(=O)(=O)c3ccc(C#N)cc3)cnc3ccc(Cl)cc23)CC1 [Compound 218] | > 500
13 | Cc1ccc(S(=O)(=O)c2cnc3ccc(Cl)cc3c2N2CCC(C)CC2)cc1Cl [Compound 219] | 200 to 500
14 | Cc1ccc(S(=O)(=O)c2cnc3ccc(Cl)cc3c2N2CCC(C)CC2)cc1C [Compound 220] | < 200
15 | COc1ccc(S(=O)(=O)c2cnc3ccc(Cl)cc3c2N2CCC(C)CC2)cc1Cl [Compound 221] | > 500
16 | CC1CCN(c2c(S(=O)(=O)c3ccc(F)c(F)c3)cnc3ccc(Cl)cc23)CC1 [Compound 222] | 200 to 500

Row | SMILES | Ki [nM]
17 | CC1CCN(c2c(S(=O)(=O)c3ccc(Cl)c(Cl)c3)cnc3ccc(Cl)cc23)CC1 [Compound 223] | < 200
18 | Cc1cc(C)cc(S(=O)(=O)c2cnc3ccc(Cl)cc3c2N2CCC(C)CC2)c1 [Compound 224] | > 500
19 | COc1ccc(S(=O)(=O)c2cnc3ccc(Cl)cc3c2N2CCC(C)CC2)cc1OC [Compound 225] | 200 to 500
20 | CC1CCN(c2c(S(=O)(=O)c3cc(Cl)cc(Cl)c3)cnc3c(F)cccc23)CC1 [Compound 226] | < 200
21 | CC1CCN(c2c(S(=O)(=O)c3cc(F)cc(F)c3)cnc3c(F)cccc23)CC1 [Compound 227] | > 500
22 | CC1CCN(c2c(S(=O)(=O)c3ccc(F)cc3)cnc3c(F)cccc23)CC1 [Compound 228] | > 500
23 | COc1ccc(S(=O)(=O)c2cnc3c(F)cccc3c2N2CCC(C)CC2)cc1 [Compound 229] | 200 to 500
24 | CC1CCN(c2c(S(=O)(=O)c3ccccc3)cnc3c(F)cccc23)CC1 [Compound 230] | > 500
25 | CC1CCN(c2c(S(=O)(=O)c3ccc(Cl)cc3)cnc3c(F)cccc23)CC1 [Compound 231] | < 200
26 | CC1CCN(c2c(S(=O)(=O)c3cccc(F)c3)cnc3c(F)cccc23)CC1 [Compound 232] | 200 to 500
27 | Cc1ccc(S(=O)(=O)c2cnc3c(F)cccc3c2N2CCC(C)CC2)cc1F [Compound 233] | < 200
28 | CC1CCN(c2c(S(=O)(=O)c3ccc(C#N)cc3)cnc3c(F)cccc23)CC1 [Compound 234] | < 200
29 | Cc1ccc(S(=O)(=O)c2cnc3c(F)cccc3c2N2CCC(C)CC2)cc1 [Compound 235] | < 200
30 | CC1CCN(c2c(S(=O)(=O)c3ccc(Cl)c(Cl)c3)cnc3c(F)cccc23)CC1 [Compound 236] | < 200
31 | CC1CCN(c2c(S(=O)(=O)c3ccc(F)c(Cl)c3)cnc3c(F)cccc23)CC1 [Compound 237] | < 200

The next lines start with the values.

Row | Ki [nM] | SMILES
32 | < 200 | Cc1ccc2ncc(S(=O)(=O)c3ccc(C)c(C)c3)c(N3CCC(C)CC3)c2c1 [Compound 161]
33 | < 200 | COc1ccc(S(=O)(=O)c2cnc3ccc(C)cc3c2N2CCC(C)CC2)cc1Cl [Compound 162]
34 | < 200 | Cc1ccc2ncc(S(=O)(=O)c3cccc(Cl)c3)c(N3CCC(C)CC3)c2c1 [Compound 163]
35 | < 200 | Cc1ccc2ncc(S(=O)(=O)c3ccc(Cl)c(Cl)c3)c(N3CCC(C)CC3)c2c1 [Compound 164]
36 | < 200 | Cc1ccc2ncc(S(=O)(=O)c3ccc(C)c(F)c3)c(N3CCC(C)CC3)c2c1 [Compound 165]
37 | < 200 | Cc1ccc2ncc(S(=O)(=O)c3ccc(C)c(Cl)c3)c(N3CCC(C)CC3)c2c1 [Compound 167]
38 | < 200 | Cc1ccc2ncc(S(=O)(=O)c3ccc(F)c(Cl)c3)c(N3CCC(C)CC3)c2c1 [Compound 169]
39 | < 200 | Cc1ccc(S(=O)(=O)c2cnc3cc(F)ccc3c2N2CCC(C)CC2)cc1 [Compound 171]
40 | < 200 | CC1CCN(c2c(S(=O)(=O)c3ccccc3)cnc3cc(F)ccc23)CC1 [Compound 173]
41 | < 200 | CC1CCN(c2c(S(=O)(=O)c3ccc(Cl)cc3)cnc3cc(F)ccc23)CC1 [Compound 174]
42 | < 200 | COc1cccc(S(=O)(=O)c2cnc3cc(F)ccc3c2N2CCC(C)CC2)c1 [Compound 175]
43 | < 200 | CC1CCN(c2c(S(=O)(=O)c3ccc(Cl)c(Cl)c3)cnc3cc(F)ccc23)CC1 [Compound 176]
44 | < 200 | CC1CCN(c2c(S(=O)(=O)c3cc(Cl)cc(Cl)c3)cnc3cc(F)ccc23)CC1 [Compound 177]
45 | < 200 | Cc1ccc(S(=O)(=O)c2cnc3cc(F)ccc3c2N2CCC(C)CC2)cc1F [Compound 178]
46 | < 200 | CC1CCN(c2c(S(=O)(=O)c3cccc(C#N)c3)cnc3cc(F)ccc23)CC1 [Compound 179]
47 | < 200 | CC1CCN(c2c(S(=O)(=O)c3ccc(C#N)cc3)cnc3cc(F)ccc23)CC1 [Compound 180]
48 | < 200 | Cc1ccc(S(=O)(=O)c2cnc3cc(F)ccc3c2N2CCC(C)CC2)cc1Cl [Compound 181]
49 | < 200 | COc1ccc(S(=O)(=O)c2cnc3cc(F)ccc3c2N2CCC(C)CC2)cc1OC [Compound 182]
50 | < 200 | Cc1ccc(S(=O)(=O)c2cnc3cc(F)ccc3c2N2CCC(C)CC2)cc1C [Compound 183]
51 | < 200 | COc1ccc(S(=O)(=O)c2cnc3cc(F)ccc3c2N2CCC(C)CC2)cc1 [Compound 185]
52 | < 200 | CC1CCN(c2c(S(=O)(=O)c3ccc(F)c(F)c3)cnc3cc(F)ccc23)CC1 [Compound 186]
53 | < 200 | CC1CCN(c2c(S(=O)(=O)c3ccc(F)c(Cl)c3)cnc3cc(F)ccc23)CC1 [Compound 187]
54 | < 200 | CC1CCN(c2c(S(=O)(=O)c3cc(Cl)cc(Cl)c3)cnc3cc(Cl)ccc23)CC1 [Compound 188]

Row | Ki [nM] | SMILES
55 | < 200 | CC1CCN(c2c(S(=O)(=O)c3cc(F)cc(F)c3)cnc3cc(Cl)ccc23)CC1 [Compound 189]
56 | < 200 | CC1CCN(c2c(S(=O)(=O)c3cccc(C#N)c3)cnc3cc(Cl)ccc23)CC1 [Compound 190]
57 | < 200 | Cc1ccc(S(=O)(=O)c2cnc3cc(Cl)ccc3c2N2CCC(C)CC2)cc1 [Compound 191]
58 | < 200 | CC1CCN(c2c(S(=O)(=O)c3ccc(F)cc3)cnc3cc(Cl)ccc23)CC1 [Compound 192]
59 | < 200 | CC1CCN(c2c(S(=O)(=O)c3ccccc3)cnc3cc(Cl)ccc23)CC1 [Compound 194]
60 | < 200 | CC1CCN(c2c(S(=O)(=O)c3ccc(Cl)cc3)cnc3cc(Cl)ccc23)CC1 [Compound 195, 7-Chloro-3-(4-chloro-benzenesulfonyl)-4-(4-methyl-piperidin-1-yl)-quinoline]
61 | < 200 | COc1ccc(S(=O)(=O)c2cnc3cc(Cl)ccc3c2N2CCC(C)CC2)cc1OC [Compound 196]
62 | < 200 | CC1CCN(c2c(S(=O)(=O)c3cccc(F)c3)cnc3cc(Cl)ccc23)CC1 [Compound 197]
63 | < 200 | COc1cccc(S(=O)(=O)c2cnc3cc(Cl)ccc3c2N2CCC(C)CC2)c1 [Compound 198]
64 | < 200 | Cc1ccc(S(=O)(=O)c2cnc3cc(Cl)ccc3c2N2CCC(C)CC2)cc1C [Compound 199]
65 | < 200 | COc1ccc(S(=O)(=O)c2cnc3cc(Cl)ccc3c2N2CCC(C)CC2)cc1Cl [Compound 200]
66 | < 200 | CC1CCN(c2c(S(=O)(=O)c3cccc(Cl)c3)cnc3cc(Cl)ccc23)CC1 [Compound 201]
67 | < 200 | CC1CCN(c2c(S(=O)(=O)c3ccc(Cl)c(Cl)c3)cnc3cc(Cl)ccc23)CC1 [Compound 202]
68 | < 200 | Cc1ccc(S(=O)(=O)c2cnc3cc(Cl)ccc3c2N2CCC(C)CC2)cc1F [Compound 203]
69 | < 200 | Cc1ccc(S(=O)(=O)c2cnc3cc(Cl)ccc3c2N2CCC(C)CC2)cc1Cl [Compound 205]
70 | < 200 | CC1CCN(c2c(S(=O)(=O)c3ccc(F)c(F)c3)cnc3cc(Cl)ccc23)CC1 [Compound 206]
71 | < 200 | CC1CCN(c2c(S(=O)(=O)c3ccc(F)c(Cl)c3)cnc3cc(Cl)ccc23)CC1 [Compound 207]
72 | < 200 | CC1CCN(c2c(S(=O)(=O)c3cc(Cl)cc(Cl)c3)cnc3ccc(Cl)cc23)CC1 [Compound 208]
73 | < 200 | CC1CCN(c2c(S(=O)(=O)c3cc(F)cc(F)c3)cnc3ccc(Cl)cc23)CC1 [Compound 209]
74 | < 200 | CC1CCN(c2c(S(=O)(=O)c3cccc(C#N)c3)cnc3ccc(Cl)cc23)CC1 [Compound 210]
75 | < 200 | Cc1ccc(S(=O)(=O)c2cnc3ccc(Cl)cc3c2N2CCC(C)CC2)cc1 [Compound 211]
76 | < 200 | CC1CCN(c2c(S(=O)(=O)c3ccc(F)cc3)cnc3ccc(Cl)cc23)CC1 [Compound 212]
77 | < 200 | CC1CCN(c2c(S(=O)(=O)c3ccc(Cl)cc3)cnc3ccc(Cl)cc23)CC1 [Compound 213]
